Tests used:
Assay type in all cases: cell-based, mouse
MAPK = test: Myelin basic protein (MBP) kinase assay on single eggs (MAPK activity); settings: in vivo ovulated MII eggs, KSOM with 10 μM TPEN, 1 to 8 hours
Protocol: Histone H1 and myelin basic protein (MBP) dual kinase assays were performed as previously described (Svoboda et al., 2000). Dried gels were exposed to Kodak BIOMAX MR films for 12 to 72 hours at −80° C. using Kodak intensifying screens; films were developed, scanned, and analyzed using ImageJ software. Assays were performed on single oocytes, and densitometric analysis is expressed relative to levels in control eggs.

[1] = system: zinc-insufficient oocytes; test: Spindle phenotype scoring after IVM in TPEN with proteasome inhibitor MG132 added after 10 h; settings: TPEN 16 h without MG132; n=13
Protocol: (§1) For IVM studies, immature female CD1 mice (17 to 21 day old) were injected with 5IU equine chorionic gonadotropin (eCG) (Calbiochem, La Jolla, CA) in 100 μL sterile phosphate-buffered saline (PBS), intraperitoneally. After 44 to 48 hours, mice were anesthetized using isoflurane and euthanized by cervical dislocation. Dissected ovaries were placed in Leibovitz L-15 medium containing 1% FBS (L-15/FBS) and 0.2mM 3-isobutyl-1-methylxanthine (IBMX), and large antral follicles were punctured using 28 gauge needles to release cumulus oocyte complexes (COCs). COCs were washed through several drops of culture medium consisting of Minimum Essential Medium (MEM)-alpha with GLUTAMAX supplemented with 10% FBS, 1.5IU/mL human chorionic gonadotropin (hCG), and 5ng/mL epidermal growth factor and placed in culture medium with or without 10 μM N,N,N′,N′-tetrakis(2-pyridylmethyl) ethylenediamine (TPEN). In some experiments Z-Leu-Leu-Leu-al (MG132) was added to culture medium at 20 μM. COCs were cultured in drops of pre-equilibrated medium covered with embryo quality mineral oil at 37° C. in 5% CO2 with a humid environment. Ovulated MII eggs were collected from 4 to 6 week old mice primed with 5IU PMSG followed 48 h later by 5IU hCG. Oviducts were dissected into L-15/FBS, and eggs were removed and treated with 0.03% (w/v) hyaluronidase to remove cumulus cells. Eggs were washed and cultured in potassium simplex optimized medium (KSOM) (Millipore, Billerica, MA) covered with embryo quality mineral oil at 37° C. in 5% CO2.
(§2) Oocytes were denuded of cumulus cells and fixed in a microtubule stabilizing buffer (Ibanez et al., 2005) containing 2% formaldehyde and 1% Triton X-100 for 30 min at 37° C. Oocytes were washed and blocked in PBS containing 0.1M glycine, 3mg/mL BSA, 0.01% Tween 20, and 0.01% sodium azide for at least 1 h and were stored in blocking solution at 4° C. for up to 2 weeks. Oocytes were incubated with anti-tubulin antibody (1:100) for 1 h at 37C. followed by three washes in blocking solution. They were then incubated for 1 h in AlexaFluor-488 conjugated anti-mouse secondary antibody (5μg/mL) and rhodamine-phalloidin (2U/mL), washed three additional times, and mounted in VECTASHIELD with DAPI. Microscopy was performed using a Leica SP5 inverted laser-scanning confocal microscope with a 63x oil immersion objective (Leica Microsystems, Heidelberg, Germany). Images were processed using LAS AF software (Leica Microsystems).
It has been previously shown that zinc-insufficient oocytes fail to increase MPF activity following the first meiotic division and have low CCNB1 protein levels (Bernhardt et al., 2010). In order to determine whether this decrease in CCNB1 is the major cause of the observed meiotic arrest phenotype, it was tested whether increasing CCNB1 would be sufficient to rescue MII entry in zinc-insufficient oocytes by inhibiting the proteasome at the end of the MI-MII transition, thereby halting CCNB1 degradation. Experimental oocytes were cultured for 10 hours in TPEN-containing medium and were then transferred into medium containing TPEN as well as the proteasome inhibitor Z-Leu-Leu-Leu-al (MG132) at 20 μM concentration. MG132 was added after first polar body extrusion, because earlier addition would result in MI arrest due to failure to degrade APC/C targets that prevent cell division. Oocytes were cultured for an additional 6 h in the presence of MG132 to allow time for CCNB1 reaccumulation, for a total 16 h IVM culture period. Proteasome inhibition led to a partial rescue of the zinc insufficiency phenotype. 69% of treated oocytes formed spindle-like structures, and none were in telophase I arrest, despite being cultured in the presence of TPEN for the entire culture period (FIG. 2, A; Table 2).
A majority of zinc-insufficient oocytes treated with MG132 following the first meiotic division transition progress beyond telophase-I arrest and form MII spindle-like structures. […]

oocytes = test: Spindle phenotype scoring after in vitro maturation (IVM) with TPEN, MI-MII transition
Protocol: as §1
as §2, with “Microsystems). […]” for “Microsystems).”
Oocytes treated with TPEN during the MI-MII transition fail to enter MII. Following IVM under the conditions listed in control (C) or TPEN-containing (T) medium, oocytes were stained and imaged, and their spindle phenotypes were scored.

[2] = COCs in control medium 7.5 h, then 10 μM TPEN 6.5 h, n=42
[3] = COCs in control medium 7.5 h, then 10 μM TPEN 6.5 h, n=42, listed as T

**Q.** For c1ccc(CN(CCN(Cc2ccccn2)Cc2ccccn2)Cc2ccccn2)nc1 [TPEN, N,N,N′,N′-tetrakis(2-pyridylmethyl)ethylenediamine], which “MAPK activity (MBP kinase) in MII eggs” value (MAPK) is on record?
**A.** did not change appreciably

**Q.** And the “MII (aligned metaphase plate)” value [1]?
**A.** 0%

**Q.** What about the other spindle phenotype [1] of the same molecule?
**A.** 23%

**Q.** What about the “persisting midbody or chromatin mass” value [1] of the same molecule?
**A.** 0%

**Q.** What about the “spindle with chr. scattered along length” value [1] of the same molecule?
**A.** 0%

**Q.** What about the “spindle with ≦3 chr. out of place” value [1] of the same molecule?
**A.** 0%

**Q.** And the “TPEN-like (telophase-I arrest-like) spindle phenotype” value (oocytes; [2])?
**A.** 31%

**Q.** What about the “normal MII spindle” value (oocytes; [2]) of the same molecule?
**A.** failed to form MII spindles and none

**Q.** What about the “other (>2 chr. masses) spindle phenotype” value (oocytes; [2]) of the same molecule?
**A.** 19%

**Q.** What about the “partial TPEN-like (chromatin mass) spindle phenotype” value (“partial TPEN-like” below) (oocytes; [2]) of the same molecule?
**A.** 54%

**Q.** What about the “TPEN-like (telophase-I arrest-like) spindle phenotype” value (oocytes; [3]) of the same molecule?
**A.** 31%

**Q.** What about the “normal MII spindle” value (oocytes; [3]) of the same molecule?
**A.** 0%

**Q.** And the “partial TPEN-like” value (oocytes; [3])?
**A.** 54%

**Q.** And the “TPEN-like (telophase-I arrest-like) spindle phenotype” value (oocytes; TPEN 14 h IVM, n=34)?
**A.** 91%

**Q.** And the “normal MII spindle” value (oocytes; TPEN 14 h IVM, n=34)?
**A.** 0%

**Q.** What about the “other (>2 chr. masses) spindle phenotype” value (oocytes; TPEN 14 h IVM, n=34) of the same molecule?
**A.** 6%

**Q.** And the “partial TPEN-like” value (oocytes; TPEN 14 h IVM, n=34)?
**A.** 3%
